Experimental data: ChEMBL document CHEMBL5634204, “Goondansamycins A-H: Benzenoid Ansamycins from an Australian Volcanic Crater Soil-Derived Actinomadura sp. S4S-00069B08” (J Nat Prod, 2024)

Key:
Candida albicans = assay: Antifungal activity against Candida albicans ATCC 10231 assessed as inhibition of fungal growth incubated for 48 hrs by spectrophotometry; assay type: functional, organism-based; conditions: ATCC 10231, 48 h
SW-620 = assay: Cytotoxicity against human SW620 cells assessed as inhibition of cell growth incubated for 48 hrs by MTT assay; assay type: functional, cell-based; conditions: SW-620, 48 h
Staphylococcus aureus = assay: Antibacterial activity against Staphylococcus aureus ATCC 25923 assessed as inhibition of bacterial growth incubated for 24 hrs by spectrophotometry; assay type: functional, organism-based; conditions: ATCC 25923, 24 h
NCI-H460 = assay: Cytotoxicity against human NCI-H460 cells assessed as inhibition of cell growth incubated for 48 hrs by MTT assay; assay type: functional, cell-based; conditions: NCI-H460, 48 h
Escherichia coli = assay: Antibacterial activity against Escherichia coli ATCC 11775 assessed as inhibition of bacterial growth incubated for 24 hrs by spectrophotometry; assay type: functional, organism-based; conditions: ATCC 11775, 24 h

Measured: IC50

C/C1=C\[C@@H](C)[C@H](O)c2cc(O)cc3c2O[C@](C)(C(=O)N3)C(=O)[C@@H](C)C1
> 30 µM: all assays above

C/C1=C\[C@@H](C)[C@H](O[C@@H]2CC[C@@H](O)[C@@H](C)O2)C2=CC(=O)C(N)=C(NC(=O)C(C)C(=O)[C@@H](C)C1)C2=O (stereo not given in full)
> 30 µM: all assays above

C/C1=C\[C@@H](C)[C@H](O)C2=CC(=O)C(N)=C(NC(=O)C(C)C(=O)[C@@H](C)C1)C2=O (stereo not given in full)
> 30 µM: all assays above

C/C1=C\C(C)C(O)c2cc(O)cc3c2OC(CO)(C(=O)N3)C(=O)C(C)C1 (stereo not given)
> 30 µM: all assays above

C/C1=C\[C@@H](C)[C@H](O)c2cc(O)cc3c2O[C@](C)(C(=O)N3)C(=O)[C@H](C)C1
> 30 µM: all assays above

CCC(=O)[C@@H](C)C/C(C)=C/[C@@H](C)[C@H](O[C@@H]1CC[C@@H](O)[C@@H](C)O1)C1=CC(=O)C=C(N)C1=O
> 30 µM: all assays above

C/C1=C\[C@@H](C)[C@H](O[C@@H]2CC[C@@H](O)[C@@H](C)O2)c2cc(O)cc3c2O[C@](C)(C(=O)N3)C(=O)[C@@H](C)C1
> 30 µM: all assays above

C/C1=C\C(C)C(O)c2cc(O)cc3c2OC(C)(C(=O)N3)C(=O)C(C)C1 (stereo not given)
> 30 µM: all assays above

C/C1=C\[C@@H](C)[C@H](O)c2cc(O)cc(c2O)NC(=O)[C@@H](C)C(=O)[C@@H](C)C1
> 30 µM: all assays above

C/C1=C\[C@@H](C)[C@H](O[C@@H]2CC[C@H](O)[C@@H](C)O2)c2cc(O)cc3c2O[C@](C)(C(=O)N3)C(=O)[C@@H](C)C1
> 30 µM: all assays above
